Laboratory results from patent US6291194A, “Assay for determination of androgenic or anti-androgenic activity of a serum sample or a test compound” (priority 2000, dated 2001).

Legend:
androgen receptor (AR) = biological target: T1, androgen receptor (AR) (Homo sapiens, UniProt P10275); experiment: COS-1 bioassay, inhibition by nonsteroidal antiandrogens of testosterone-induced AR LBD / N-terminal interaction; format: cell-based
T1 construct: The LBD of human AR (containing amino acids 657-919); expressed in transfected cells; host or cells: COS-1 cells (ATCC CRL1650)

[1] = cited from earlier work

T1 sequence (P10275 with tags, fused parts or gaps limits assumed): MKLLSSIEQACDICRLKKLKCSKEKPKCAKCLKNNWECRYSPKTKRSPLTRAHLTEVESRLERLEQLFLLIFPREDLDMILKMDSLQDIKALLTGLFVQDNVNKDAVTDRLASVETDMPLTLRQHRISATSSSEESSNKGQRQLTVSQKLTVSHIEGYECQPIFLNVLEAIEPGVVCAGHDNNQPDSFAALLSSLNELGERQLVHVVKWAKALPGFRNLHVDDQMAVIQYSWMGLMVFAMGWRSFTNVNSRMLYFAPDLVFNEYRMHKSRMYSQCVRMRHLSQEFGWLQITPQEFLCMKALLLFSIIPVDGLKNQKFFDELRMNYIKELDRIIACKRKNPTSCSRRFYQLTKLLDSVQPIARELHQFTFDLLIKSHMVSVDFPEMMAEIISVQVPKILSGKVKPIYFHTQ

SMILES | effect on interaction between AR termini / relative luciferase activity (in words) (androgen receptor (AR)) | relative luciferase activity as % of activity with testosterone-containing FCS without antiandrogen (androgen receptor (AR); 100 times molar amount of testosterone (10 nmol/L testosterone in FCS)) | free fraction of total testosterone in serum [1]
CC(C)(O)C(=O)Nc1ccc([N+](=O)[O-])c(C(F)(F)F)c1 [hydroxyflutamide, 4-hydroxy-α,α,α-trifluoro-2-methyl-4'-nitro-m-propionotoluidide] | suppressed relative luciferase activity | ~ 5% | 
C[C@]12CC[C@H]3[C@@H](CCC4=CC(=O)CC[C@@]43C)[C@@H]1CC[C@@H]2O [testosterone, Testosterone] |  |  | 2-3%
